Measured values taken from US20240261258A1, “Presurgical Perineural Administration of Resiniferatoxin For Reduction of Post-Operative Pain” (Sorrento Therapeutics, Inc., priority 2021, published 2024).

Experiments:
[1] = tested on: healthy dogs undergoing TPLO surgery; test: Clinical observations during RTX instillation under general anesthesia and recovery; assay type: in vivo, dog
Source text: This example provides safety data related to the tolerability of RTX administered as a nerve block pre-surgically and as a local application on the surgical site intraoperatively in healthy dogs undergoing tibial plateau levelling osteotomy (TPLO). Pharmacological behavior of RTX after a perineural injection and local application in the hindlimb and the long-term effects on bone healing was also observed.
Fourteen adult female beagle dogs, weighing 11.9±0.6 kg and between 3-5 years of age, were enrolled in this study. Each animal was randomly assigned to one of four groups. Four dogs (group 1) received a femoral and sciatic nerve block with 12.5 μg RTX per nerve (25 μg RTX total) diluted with sterile saline for a total volume of 2 mL (half volume per block). Another four dogs (group 2) received a femoral and a sciatic nerve block with 3.12 μg RTX per nerve block (6.25 μg RTX total) diluted with sterile saline for a total volume of 2 mL (half volume per block). Group 3 (4 animals) received a femoral and sciatic nerve block with 5 mg bupivacaine total (standard of care) plus a total of 50 μg RTX (total volume of 4 mL, concentration 12.5 μg/mL) applied locally to the cut on the tibia for 10 min. Group 4 (2 animals) was the control group and received a femoral and a sciatic nerve block with 5 mg bupivacaine total (standard of care).
Dogs were sedated and anesthetized using standard protocols and following the American College of Veterinary Analgesia and Anesthesia guidelines. A physical exam was performed prior to surgery and a complete blood count and chemistry profile were submitted. Food was withheld for 8-10 hours before surgery and offered again 4-6 hours after recovery from anesthesia.
Diphenhydramine (2.2 mg/kg) was given IM after induction. The peripheral IV catheter was used for administration of fluid (Lactate Ringer's solution (LRS) at 5 mL/kg/h), and intraoperative drugs when necessary (hydromorphone and/or ketamine and/or dexmedetomidine for analgesia, atropine in case of bradycardia, dopamine or dobutamine in case of hypotension). Cefazolin 22 mg/kg was administered intravenously prior to surgery and every 60-90 minutes during surgery.
Femoral and sciatic nerve blocks with RTX or bupivacaine were performed after induction of general anesthesia, and followed by surgery (TPLO). RTX was administered at least 15 minutes prior to any cut made to the bone. Dogs in group 3 received RTX during surgery via direct application on the bone.
At the end of surgery, animals were allowed to recover. Following extubation, animals were supervised until able to stand and walk steadily, then monitored for the first 4 hours following the procedure. Food and water were given at 4-6 hours if recovery was smooth and uneventful. All subjects received oral carprofen 2.2 mg/kg twice a day for 10 days and trazodone 5-7 mg/kg twice a day, until the end of the study.
Perineural injections (femoral and sciatic nerve block) of RTX were performed before surgery under general anesthesia and application of RTX over the bone incision was done during the surgical procedure. The nerve blocks were applied at after administration of anesthesia and least 15 minutes before surgery.
For the perineural injections, the animal was placed in right lateral recumbency and the lateral and medial aspects of proximal area of the left hindlimb were clipped and prepared using an aseptic technique. A caudal approach was used for the sciatic nerve block. The ultrasound transducer was placed over the lateral aspect of the biceps femoris, just distal to the greater trochanter and oriented craniocaudally. After obtaining a short axis view of the sciatic nerve, a sheathed needle for electrolocation was inserted caudally in-plane with the ultrasound transducer until the tip of the needle reached the nerve. The correct location of the needle was confirmed by a positive response (twitches of the leg) after activation of the nerve locator using a current of 0.3-0.5 mA. […]

[2] = tested on: stifle of dogs after TPLO; test: Radiographic, CT and MRI evaluation of bone healing; assay type: in vivo, dog; conditions: for Pattern of healing N (no findings), No. of Dogs / Pattern of healing S (soft tissue swelling with normal bone healing), No. of Dogs / Pattern of healing S&B (soft tissue swelling and delayed bone healing), No. of Dogs: 4 dogs
Experimental: Radiographs of the stifle were performed before surgery, the day after surgery, at day 28, and at day 56. Dogs were sedated to allow for correct positioning of the leg and to minimize stress from handling. Standardized TPLO views (lateral and caudal-cranial) were acquired. An MRI and CT were also performed on the operated leg after the animals were euthanized and the surgical plate was removed (day 56).
Orthogonal plane radiographs of the stifle were obtained for all dogs at all timepoints. After euthanasia, CT was obtained in 11 of the 14 dogs and MRI in all dogs. Metal artifact due to the presence of a broken screw prevented the evaluation of one MR study. Soft tissues could not be reliably assessed due to disruption secondary to removal of the plate. There was no evidence of implant failure or suboptimal osteotomy repair in any dog. Upon review of all imaging modalities, three patterns of healing emerged (Table 9a).
The delay of bone healing refers to a slower bone healing process as compared to the findings in the rest of the dogs in this study. This is not to be considered as an absolute delayed bone healing since the dogs were only enrolled in the study for 56 days

SMILES: C=C(C)[C@]12C[C@@H](C)[C@@]34O[C@](Cc5ccccc5)(O[C@@H]1[C@@H]3C=C(COC(=O)Cc1ccc(O)c(OC)c1)C[C@]1(O)C(=O)C(C)=C[C@@H]41)O2 [RTX, resiniferatoxin]
- Dogs that required dobutamine to treat hypotension ([1]; Group 1 (4 dogs), after RTX administration): None
- Dogs given dexmedetomidine IV to treat dysphoria immediately after extubation ([1]; Group 2): one
- Dogs given naloxone IV due to prolonged recovery ([1]; Group 2): One
- Dogs that required dobutamine to treat hypotension ([1]; Group 2 (4 dogs), after RTX administration): one
- Dogs given dexmedetomidine IV to treat dysphoria immediately after extubation ([1]; Group 3): one
- Dogs that required dobutamine to treat hypotension ([1]; Group 3 (4 dogs)): two
- Mean blood pressure after increase ([1]; Subject 2968 (group 1), from 60 mmHg, 100 minutes after RTX, leg stretched during aseptic preparation): 172 mmHg
- Heart rate after increase ([1]; Subject 2968 (group 1), from 90 bpm, 100 minutes after RTX, leg stretched during aseptic preparation): 168 bpm
- Tolerability ([1]; all RTX treatments: nerve block 6.25 μg and 25 μg total, local gauze loaded with 50 μg): well tolerated
- Change in heart rate and blood pressure ([1]; approximately 15 to 25 minutes after RTX administration, group 1 and 2 subjects): mild to moderate increase
- Respiratory observation after extubation ([1]; dogs in group 1 and 2): polypnea
- Body temperature to which dogs decreased before polypnea ended ([1]; dogs in group 1 and 2, after extubation): 94-95 ° F
- Duration of decrease in body temperature after the treatment ([1]; some dogs of groups 1 and 2, clinically acted normally): up to 3 days
- Persistence of hypothermia ([1]; three subjects of group 1 (0271, 2968, 5635), without any clinical signs): over 24 hours
- Pattern of healing N (no findings), No. of Dogs ([2]; Group 1 (high dose)): 1
- Pattern of healing S (soft tissue swelling with normal bone healing), No. of Dogs ([2]; Group 1 (high dose)): 2
- Pattern of healing S&B (soft tissue swelling and delayed bone healing), No. of Dogs ([2]; Group 1 (high dose)): 1
- Pattern of healing N (no findings), No. of Dogs ([2]; Group 2 (low dose)): 2
- Pattern of healing S (soft tissue swelling with normal bone healing), No. of Dogs ([2]; Group 2 (low dose)): 1
- Pattern of healing S&B (soft tissue swelling and delayed bone healing), No. of Dogs ([2]; Group 2 (low dose)): 1
- Pattern of healing N (no findings), No. of Dogs ([2]; Group 3 (local)): 1
- Pattern of healing S (soft tissue swelling with normal bone healing), No. of Dogs ([2]; Group 3 (local)): 1
- Pattern of healing S&B (soft tissue swelling and delayed bone healing), No. of Dogs ([2]; Group 3 (local)): 2
- Effect on the bone healing process ([2]; distribution of healing patterns among the treatment groups): did not adversely affect the bone healing process
